# Measurements from patent US9864847B2, “Method for predicting the solubility of a molecule in a polymer at a given temperature” (priority 2014, dated 2018).
# Columns and labels:
# [1] = 25° C.
# Description: The drug indomethacin and the polymer PVP-K30 were taken in various ratios, corresponding to weight percentages of indomethacin in the mixture of 2.5%, 10%, 15%, and 20%. DSC was performed on the pure indomethacin and pure PVP-K30, and the specific heat for each was obtained as a function of the temperature over the range of 220K to 310K. The DSC instrument provided reliable data as low as 220K, which was taken as Tmin. Solid solutions were formed by mixing the drug and polymer in a mortar and pestle, allowing them to stand at 130° C. (403 K) for 5 days, then allowing them to cool to room temperature. DSC was also performed to determine the specific heat of the solid solutions from 220K to 300K. All DSC was performed using a pinhole in the lid and was thus considered open pan, so the specific heats were considered to be obtained at constant pressure. All heating and cooling rates were 5° C. per minute. […]
# The entire procedure was repeated for each indomethacin-PVP combinations (2.5% m 10%, 15% and 20% indomethacin by weight), including obtaining the adjustable parameters a0, a1 . . . a8 for each indomethacin/PVP-K30 combination. […] The values of ΔgSS at 25° C. were calculated for each drug-polymer ratio from Eq. (33), and subsequently used to calculate values of ΔgSS/f0.
# [2] = Difference in specific enthalpy and specific entropy (solid solution minus unmixed components) from DSC specific heats; format: physicochemical; conditions: indomethacin 2.5% by weight with PVP-K30
# Source text: In practice, there is a lower limit to the temperature at which thermal analysis instruments such as DSC can provide accurate experimental data. As a result, it is not possible to experimentally obtain the necessary specific heats over all temperatures down to absolute zero, but instead they only be evaluated to a minimum temperature, denoted by Tmin. The experimental data can be used to construct a temperature-dependent difference in specific heats, denoted as ΔCP, which is defined as the difference between the specific heat of the solid solution minus the specific heat of the unmixed components in the same ratio, over the temperature range of Tmin to any higher temperature T for which experimental specific heat data is available. This is given by Δ[…]) (29) Because of the thermal analysis instrument limitations, ΔCP provides no data between absolute zero and Tmin, so it is necessary to estimate the values of specific heat differences at temperatures below Tmin. One way to do this is to extrapolate the plot of the experimentally obtained ΔCP vs. the temperature from Tmin to absolute zero. This can be done as follows. • Obtain the experimental values for ΔCP from Tmin up to at least temperature Tat which the solubility of the drug in the polymer is to be evaluated. • Construct an approximating function Δc that is a function of the temperature, which will be used to estimate ΔCP at temperatures lower than Tmin. • Fit the function Δc to the experimental values of ΔCP from Tmin to T using any appropriate method, such as linear or nonlinear regression. • Using the fitted equation for Δc, calculate values of Δc over temperatures from absolute zero to Tmin. These values will be used as substitutes for experimental specific heat difference for temperatures below Tmin. There is no theoretical model or equation that dictates the mathematical form of Δc, and more than one functional form can be chosen. […] One preferred form would be a sum of a constant plus exponentials, such as Δ[…]) (30) where a0, a1 . . . a8 are temperature independent parameters with values that can be determined or fit by nonlinear regression or other methods so Eq. (30) will be a good approximation to the experimental ΔCP vs. temperature data over the experimental temperature range. […] (The value for a4 was not determined because the coefficient multiplying the exponential a3 was zero. […] Using the values Δc calculated from Eq. (34) for temperatures from 0 to […], and the experimental values of ΔCP, values of Δ[…] calculated from Eq. (31) and (32), respectively, for various temperatures. For this combination of indomethacin and PVP-K30, the calculated specific enthalpy values at -10° C. and 25° C.
# [3] = indomethacin / PVP-K30 at 25° C.; cited from earlier work
smiles,measurement,setting,value
COc1ccc2c(c1)c(CC(=O)O)c(C)n2C(=O)c1ccc(Cl)cc1 [indomethacin],maximum stable weight fraction of indomethacin in PVP-K30 solid solution,[1],15 % by weight
same,indomethacin weight fraction at minimum of ΔgSS/f0,"[1]; PVP-K30, FIG. 4",approximately 0.15
same,Δhheat (calculated specific enthalpy difference),[2]; 25° C. (298 K),18.347 J/g
same,Δsheat (calculated specific entropy difference),[2]; 25° C. (298 K),0.0787 J/K/g
same,Δhheat (calculated specific enthalpy difference),[2]; −10° C. (263 K),9.66 J/g
same,Δsheat (calculated specific entropy difference),[2]; −10° C. (263 K),0.0479 J/K/g
same,interaction parameter χ,[3],0.747
